Results on 26 compounds are retold here after patent US7511145B2 (Genelabs Technologies, Inc., priority 2003, dated 2009).

The test has as its target T1, HCV-NS5b (Hepatitis C virus genotype 1b, UniProt Q9WMX2).
T1 construct: (His)6 (C); made in house; host or cells: XL-1 cells (E. coli), IPTG-inducible plasmid, nickel-NTA purification
Description: HCV-NS5b enzyme assay (incorporation of radiolabeled UTP). The test is classed as biochemical. To be noted: for inhibition at 33 µM: enzyme inhibition at compound concentration of 33 uM; for inhibition at 100 µM: read-out: % inh@100, enzyme inhibition at compound concentration of 100 uM. An outline of the steps: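 Percent inhibition, background-corrected against uninhibited control, was measured at 100 and 33 uM compound. Incorporation of [3H]-UTP (10 μM each NTP) into biotinylated HCV-template RNA, 37° C for 2 h, pH 7.5, scintillation proximity. Enzyme: C-terminally truncated (21 aa), His6-tagged NS5b from XL-1.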

As for `CN(C)CCNC(=O)c1ccc(-c2ccc(Cl)cc2)c(-c2ccc3cc(-c4nc5cc(C(=O)O)ccc5n4C4CCCCC4)ccc3n2)c1` [Compound 491, 2-{2-[4′-Chloro-4-(2-dimethylamino-ethylcarbamoyl)-biphen-2-yl]-quinolin-6-yl}-1-cyclohexyl-1H-benzoimidazole-5-carboxylic acid], the inhibition at 33 µM is 98.3% and the inhibition at 100 µM stood at 100%.

As for `O=C(O)c1ccc2c(c1)nc(-c1ccc3nc(-c4ccc(Oc5ccc(Cl)cc5)cc4Cl)ccc3c1)n2C1CCCCC1` [Compound 492, 2-{2-[2-chloro-4-(4-chloro-phenoxy)-phenyl]-quinolin-6-yl}-1-cyclohexyl-1H-benzoimidazole-5-carboxylic acid], the inhibition at 33 µM amounted to 99.2% and the inhibition at 100 µM came out at 100%.

In the case of `COc1ccc2occ(-c3ccc4cc(-c5nc6cc(C(=O)O)ccc6n5C5CCCCC5)ccc4n3)c2c1` [Compound 493, 1-cyclohexyl-2-[2-(5-methoxy-benzofuran-3-yl)-quinolin-6-yl]-1H-benzoimidazole-5-carboxylic acid], the inhibition at 33 µM stood at 101% and the inhibition at 100 µM turned out to be 100%.

Regarding `CCOc1cc(-c2ccccc2)nc2ccc(-c3nc4cc(C(=O)O)ccc4n3C3CCCCC3)cc12` [Compound 494, 1-cyclohexyl-2-(4-ethoxy-2-phenyl-quinolin-6-yl)-1H-benzoimidazole-5-carboxylic acid], the inhibition at 33 µM was determined as 94.8% and the inhibition at 100 µM turned out to be 99.2%.

Turning to `COc1cc(OC)cc(-c2ccc3cc(-c4nc5cc(C(=O)O)ccc5n4C4CCCCC4)ccc3n2)c1` [Compound 495, 1-cyclohexyl-2-[2-(3,5-dimethoxy-phenyl)-quinolin-6-yl]-1H-benzoimidazole-5-carboxylic acid], the inhibition at 33 µM was determined as 99.8% and the inhibition at 100 µM stood at 101%.

`O=C(O)c1ccc2c(c1)nc(-c1ccc3nc(-c4ccccc4)cc(Oc4ccccc4)c3c1)n2C1CCCCC1` [Compound 496, 1-cyclohexyl-2-(4-phenoxy-2-phenyl-quinolin-6-yl)-1H-benzoimidazole-5-carboxylic acid]: the inhibition at 33 µM came out at 101% and the inhibition at 100 µM stood at 101%.

Regarding `CC(NC(=O)c1ccc2cc(-c3nc4cc(C(=O)O)ccc4n3C3CCCCC3)ccc2n1)C(N)=O` (stereo not shown) [Compound 497, 2-[2-(1-Carbamoylethylcarbamoyl)quinolin-6-yl]-1-cyclohexyl-1H-benzimidazole-5-carboxylic acid], the inhibition at 33 µM came out at 65.5% and the inhibition at 100 µM came out at 88.5%.

In the case of `Cc1cc(-c2ccccc2)nc2ccc(-c3nc4cc(C(=O)O)ccc4n3C3CCCCC3)cc12` [Compound 498, 1-Cyclohexyl-2-(4-methyl-2-phenyl-quinolin-6-yl)-1H-benzoimidazole-5-carboxylic acid], the inhibition at 33 µM was 98.5% and the inhibition at 100 µM came out at 100%.

In the case of `COc1ccc(-c2ccccc2)c(-c2ccc3cc(-c4nc5cc(C(=O)O)ccc5n4C4CCCCC4)ccc3n2)c1` [Compound 499, 1-Cyclohexyl-2-[2-(4-methoxy-biphen-2-yl)-quinolin-6-yl]-1H-benzoimidazole-5-carboxylic acid], the inhibition at 33 µM came to 101% and the inhibition at 100 µM is 99.7%.

Consider `O=C(O)c1ccc2c(c1)nc(-c1ccc3nc(-c4cc(O)ccc4-c4ccc(Cl)cc4)ccc3c1)n2C1CCCCC1` [Compound 500, 2-[2-(4′-Chloro-4-hydroxy-biphen-2-yl)-quinolin-6-yl]-1-cyclohexyl-1H-benzoimidazole-5-carboxylic acid], for which the inhibition at 33 µM came to 101% and the inhibition at 100 µM amounted to 101%.

As to `CC(=O)Nc1ccc(-c2ccc3cc(-c4nc5cc(C(=O)O)ccc5n4C4CCCCC4)ccc3n2)cc1` [Compound 501, 2-[2-(4-acetylamino-phenyl)-quinolin-6-yl]-1-cyclohexyl-1H-benzoimidazole-5-carboxylic acid], the inhibition at 33 µM worked out at 90.6% and the inhibition at 100 µM came to 96.8%.

As to `CC1(C)C(CC(=O)O)CC1c1ccc2cc(-c3nc4cc(C(=O)O)ccc4n3C3CCCCC3)ccc2n1` (stereo not shown) [Compound 502, 2-[2-(3-carboxymethyl-2,2-dimethyl-cyclobutyl)-quinolin-6-yl]-1-cyclohexyl-1H-benzoimidazole-5-carboxylic acid], the inhibition at 33 µM came out at 99% and the inhibition at 100 µM was determined as 100%.

For `O=C(O)c1ccc2c(c1)nc(-c1ccc3nc(-c4cccc(OCC(=O)N5CCCC5)c4)ccc3c1)n2C1CCCCC1` [Compound 503, 1-cyclohexyl-2-{2-[3-(2-oxo-2-pyrrolidin-1-yl-ethoxy)-phenyl]-quinolin-6-yl}-1H-benzoimidazole-5-carboxylic acid], the inhibition at 33 µM was 95.8% and the inhibition at 100 µM came to 97%.

Turning to `CN(C)CCNC(=O)c1ccc(-c2ccccc2)c(-c2ccc3cc(-c4nc5cc(C(=O)O)ccc5n4C4CCCCC4)ccc3n2)c1` [Compound 504, 1-Cyclohexyl-2-{2-[4-(2-dimethylamino-ethylcarbamoyl)-biphen-2-yl]-quinolin-6-yl}-1H-benzoimidazole-5-carboxylic acid], the inhibition at 33 µM stood at 98.3% and the inhibition at 100 µM came to 100%.

Consider `Cc1oc(-c2ccc(Cl)cc2)cc1-c1ccc2cc(-c3nc4cc(C(=O)O)ccc4n3C3CCCCC3)ccc2n1` [Compound 505, 2-{2-[5-(4-chloro-phenyl)-2-methyl-furan-3-yl]-quinolin-6-yl}-1-cyclohexyl-1H-benzoimidazole-5-carboxylic acid], for which the inhibition at 33 µM worked out at 99.7% and the inhibition at 100 µM stood at 102%.

`CCOCCOc1ccc(-c2ccc(Cl)cc2)c(-c2ccc3cc(-c4nc5cc(C(=O)O)ccc5n4C4CCCCC4)ccc3n2)c1` [Compound 507, 2-{2-[4′-Chloro-4-(2-ethoxy-ethoxy)-biphen-2-yl]-quinolin-6-yl}-1-cyclohexyl-1H-benzoimidazole-5-carboxylic acid]: the inhibition at 33 µM is 101% and the inhibition at 100 µM turned out to be 101%.

Take `O=C(O)c1ccc2c(c1)nc(-c1ccc3nc(-c4ccc(Cl)c(Cl)c4)ccc3c1)n2C1CCCCC1` [Compound 508, 1-cyclohexyl-2-[2-(3,4-dichloro-phenyl)-quinolin-6-yl]-1H-benzoimidazole-5-carboxylic acid]: the inhibition at 33 µM turned out to be 98.9% and the inhibition at 100 µM worked out at 98.9%.

Turning to `O=C(O)c1ccc2c(c1)nc(-c1ccc3nc(-c4ccccc4)cc(Oc4ccc5ccc(O)cc5c4)c3c1)n2C1CCCCC1` [Compound 509, 1-cyclohexyl-2-[4-(7-hydroxy-naphthalen-2-yloxy)-2-phenyl-quinolin-6-yl]-1H-benzoimidazole-5-carboxylic acid], the inhibition at 33 µM was determined as 100% and the inhibition at 100 µM was 101%.

Consider `O=C(O)c1ccc2c(c1)nc(-c1ccc3nc(C(=O)Nc4ccc(Cl)cc4)ccc3c1)n2C1CCCCC1` [Compound 510, 2-[2-(4-Chlorophenylcarbamoyl)quinolin-6-yl]-1-cyclohexyl-1H-benzimidazole-5-carboxylic acid], for which the inhibition at 33 µM is 99.5% and the inhibition at 100 µM was determined as 100%.

Turning to `CC(C)[C@H](NC(=O)c1ccc2cc(-c3nc4cc(C(=O)O)ccc4n3C3CCCCC3)ccc2n1)C(N)=O` [Compound 511, 2-[2-(1-Carbamoyl-2-methylpropylcarbamoyl)quinolin-6-yl]-1-cyclohexyl-1H-benzimidazole-5-carboxylic acid], the inhibition at 33 µM came out at 78.4% and the inhibition at 100 µM came to 95%.

Regarding `C[C@@H](O)[C@H](NC(=O)c1ccc2c(c1)nc(-c1ccc3nc(-c4ccccc4)cnc3c1)n2C1CCCCC1)C(=O)O` [Compound 512, 2-{[1-Cyclohexyl-2-(2-phenyl-quinoxalin-6-yl)-1H-benzoimidazole-5-carbonyl]-amino}-3-hydroxy-butyric acid], the inhibition at 33 µM stood at 78.9% and the inhibition at 100 µM was found to be 97.9%.

For the compound `CC(C)C[C@H](NC(=O)c1ccc2c(c1)nc(-c1ccc3nc(-c4ccccc4)cnc3c1)n2C1CCCCC1)C(=O)O` [Compound 513, 2-{[1-Cyclohexyl-2-(2-phenyl-quinoxalin-6-yl)-1H-benzoimidazole-5-carbonyl]-amino}-4-methyl-pentanoic acid], the inhibition at 33 µM is 93.2% and the inhibition at 100 µM was 95.9%.

On to `O=C(c1ccc2c(c1)nc(-c1cc3ccc(-c4ccccc4-c4ccc(Cl)cc4)nc3cc1F)n2C1CCCCC1)N1CCC(O)CC1` [Compound 514, {2-[2-(4′-Chloro-biphen-2-yl]-7-fluoro-quinolin-6-yl]-1-cyclohexyl-1H-benzoimidazol-5-yl}-(4-hydroxy-piperidin-1-yl)-methanone], for which the inhibition at 33 µM turned out to be 89.6% and the inhibition at 100 µM was 91.9%.

Take `CSCC[C@H](NC(=O)c1ccc2c(c1)nc(-c1ccc3nc(-c4ccccc4)cnc3c1)n2C1CCCCC1)C(=O)O` [Compound 515, 2-{[1-Cyclohexyl-2-(2-phenyl-quinoxalin-6-yl)-1H-benzoimidazole-5-carbonyl]-amino}-4-methylsulfanyl-butyric acid]: the inhibition at 33 µM came to 81.9% and the inhibition at 100 µM is 88.3%.

Consider `O=C(N[C@@H](Cc1c[nH]c2ccc(O)cc12)C(=O)O)c1ccc2c(c1)nc(-c1ccc3cc(-c4ccccc4)cnc3c1)n2C1CCCCC1` [Compound 516, 2-{[1-cyclohexyl-2-(3-phenyl-quinolin-7-yl)-1H-benzoimidazole-5-carbonyl]-amino}-3-(5-hydroxy-1H-indol-3-yl)-propionic acid], for which the inhibition at 33 µM turned out to be 99.3% and the inhibition at 100 µM was determined as 100%.

As for `CC(C)[C@H](NC(=O)c1ccc2c(c1)nc(-c1ccc3nc(-c4ccccc4)cnc3c1)n2C1CCCCC1)C(=O)O` [Compound 517, 2-{[1-Cyclohexyl-2-(2-phenyl-quinoxalin-6-yl)-1H-benzoimidazole-5-carbonyl]-amino}-3-methyl-butyric acid], the inhibition at 33 µM came out at 81% and the inhibition at 100 µM is 97.8%.
